Like-named read-outs stand apart in the source and are kept apart here.
Experiments:
[1] = test system: PAM1032/KPC-2 (overexpressed MexAB-OprM); assay: Biapenem potentiation (MPC64) in PAM1032/KPC-2; assay type: cell-based, Pseudomonas aeruginosa; design: PAM1032/KPC-2 Biapenem MPC64: unit not given here; details: BLI potency to decrease biapenem MIC 64-fold, from 32 to 0.5 μg/ml; efflux proficient strain
Method: (§1) Efflux of BLIs from Pseudomonas aeruginosa by the MexAB-OprM efflux pump was also evaluated. The plasmid expressing the gene encoding KPC-2 was introduced into two strains of P. aeruginosa, PAM1032 and PAM1154 that overexpressed or lacked MexAB-OprM, respectively. Due to expression of KPC-2 both strains became resistant to biapenem. […] Potency of BLIs to potentiate biapenem in these strains was determined. […] The ratio of MPC64 values for each BLI in PAM1032/KPC-2 (efflux proficient) and PAM1154/KPC-2 (efflux deficient) was determined to generate the Efflux Index (EI) as shown in Table 8.

[2] = target: VIM-1 (Pseudomonas aeruginosa, UniProt A0A0F7KYQ8); assay: Inhibition of nitrocefin cleavage by purified VIM-1; assay type: biochemical; details: nitrocefin reporter substrate; 10 min preincubation at room temperature; read-out: Ki (VIM-1, NCF)
[3] = test system: PAM1154/KPC-2 (lacked MexAB-OprM); assay: Biapenem potentiation (MPC64) in PAM1154/KPC-2; assay type: cell-based, Pseudomonas aeruginosa; design: PAM1154/KPC-2 Biapenem MPC64: unit not given here; details: BLI potency to decrease biapenem MIC 64-fold, from 32 to 0.5 μg/ml; efflux deficient strain
Method: as §1

[4] = target: CTX-M-14 (Escherichia coli, UniProt Q9L5C7); assay: Inhibition of nitrocefin cleavage by purified CTX-M-14; assay type: biochemical; details: nitrocefin reporter substrate; 10 min preincubation at room temperature; read-out: Ki (CTX-M-14, NCF)
Sequence of CTX-M-14 (Q9L5C7 29-291, species assumed): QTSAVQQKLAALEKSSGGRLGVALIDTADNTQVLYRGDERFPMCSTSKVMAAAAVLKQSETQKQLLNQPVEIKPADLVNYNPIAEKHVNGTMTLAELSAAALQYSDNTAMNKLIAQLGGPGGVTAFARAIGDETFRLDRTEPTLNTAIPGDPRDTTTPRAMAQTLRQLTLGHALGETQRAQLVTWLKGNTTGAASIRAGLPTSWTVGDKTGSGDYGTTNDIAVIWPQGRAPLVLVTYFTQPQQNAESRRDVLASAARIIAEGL
Method: (§2) Ki values of inhibition of purified class A, C and D enzymes were determined spectrophotometrically using nitrocefin as reporter substrate. Purified enzymes were mixed with various concentrations of inhibitors in reaction buffer and incubated for 10 min at room temperature. Nitrocefin was added and substrate cleavage profiles were recorded at 490 nm every 10 sec for 10 min.

[5] = target: OXA-48 (Klebsiella pneumoniae, UniProt Q6XEC0); assay: Inhibition of nitrocefin cleavage by purified OXA-48; assay type: biochemical; details: nitrocefin reporter substrate; 10 min preincubation at room temperature; read-out: Ki (OXA-48, NCF)
Sequence of OXA-48 (Q6XEC0 23-265, looked up): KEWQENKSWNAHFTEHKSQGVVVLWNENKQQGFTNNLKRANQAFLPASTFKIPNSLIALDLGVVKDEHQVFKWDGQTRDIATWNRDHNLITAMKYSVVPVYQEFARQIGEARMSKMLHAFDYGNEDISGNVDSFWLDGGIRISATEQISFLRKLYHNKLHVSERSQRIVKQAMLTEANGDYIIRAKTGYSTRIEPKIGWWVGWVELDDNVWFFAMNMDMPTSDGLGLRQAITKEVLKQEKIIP
Method: as §2, with “min. These experiments confirmed that the described compounds are inhibitors with a broad-spectrum of activity towards various β-lactamases.” for “min.”

[6] = target: KPC-2 (Klebsiella pneumoniae, UniProt Q9F663); assay: Inhibition of nitrocefin cleavage by purified KPC-2; assay type: biochemical; details: nitrocefin reporter substrate; 10 min preincubation at room temperature; read-out: Ki (KPC-2, NCF)
Sequence of KPC-2 (Q9F663 25-293 limits assumed): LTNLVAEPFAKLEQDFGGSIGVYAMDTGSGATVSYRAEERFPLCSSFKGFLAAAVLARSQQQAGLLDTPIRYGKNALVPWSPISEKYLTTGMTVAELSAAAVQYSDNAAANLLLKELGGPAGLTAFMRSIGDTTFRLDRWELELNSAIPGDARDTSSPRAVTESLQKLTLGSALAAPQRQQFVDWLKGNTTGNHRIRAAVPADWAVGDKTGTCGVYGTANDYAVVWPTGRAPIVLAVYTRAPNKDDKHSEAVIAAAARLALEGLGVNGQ
Method: as §2, with “min. These experiments confirmed that the described compounds are inhibitors with a broad-spectrum of activity towards various β-lactamases.” for “min.”

[7] = target: IMP-1 (Serratia marcescens, UniProt P52699); assay: Inhibition of imipenem cleavage by purified IMP-1; assay type: biochemical; details: imipenem reporter substrate; 37° C.; read-out: Ki (IMP-1, IMI)
Sequence of IMP-1 (P52699 19-246, looked up, species assumed): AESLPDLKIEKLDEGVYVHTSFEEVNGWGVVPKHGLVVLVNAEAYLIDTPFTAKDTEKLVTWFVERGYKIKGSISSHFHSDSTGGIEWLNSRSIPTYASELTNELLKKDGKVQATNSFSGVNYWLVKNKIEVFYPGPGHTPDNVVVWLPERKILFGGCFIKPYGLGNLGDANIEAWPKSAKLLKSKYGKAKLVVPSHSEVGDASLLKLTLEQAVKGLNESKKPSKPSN
Method: Ki values of inhibition of purified class B enzymes NDM-1 and IMP-1 were determined spectrophotometrically using imipenem as reporter substrate. Purified enzymes were mixed with various concentrations of inhibitors in reaction buffer and incubated for 10 min at room temperature. Imipenem was added and substrate cleavage profiles were recorded at 294 nm every 30 seconds for 30 minutes at 37° C. These experiments further confirmed that the described compounds have the ability to inhibit carbapenemase activity of metallo-beta-lactamases.

[8] = target: OXA-23 (Acinetobacter baumannii, UniProt Q9L4P2); assay: Inhibition of nitrocefin cleavage by purified OXA-23; assay type: biochemical; details: nitrocefin reporter substrate; 10 min preincubation at room temperature; read-out: Ki (OXA-23, NCF)
Sequence of OXA-23 (Q9L4P2 18-273): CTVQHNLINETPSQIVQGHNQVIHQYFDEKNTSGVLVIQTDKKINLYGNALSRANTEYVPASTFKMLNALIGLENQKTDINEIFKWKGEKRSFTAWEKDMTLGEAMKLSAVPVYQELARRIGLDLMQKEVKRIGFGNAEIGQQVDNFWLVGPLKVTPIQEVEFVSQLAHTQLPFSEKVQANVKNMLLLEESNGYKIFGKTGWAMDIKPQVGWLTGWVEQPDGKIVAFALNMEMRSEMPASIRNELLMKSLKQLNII
Method: as §2, with “min. These experiments confirmed that the described compounds are inhibitors with a broad-spectrum of activity towards various β-lactamases.” for “min.”

[9] = target: P99 (Enterobacter cloacae, UniProt P05364); assay: biochemical; details: nitrocefin reporter substrate; 10 min preincubation at room temperature; read-out: Ki (P99, NCF)
Sequence of P99 (P05364 21-381): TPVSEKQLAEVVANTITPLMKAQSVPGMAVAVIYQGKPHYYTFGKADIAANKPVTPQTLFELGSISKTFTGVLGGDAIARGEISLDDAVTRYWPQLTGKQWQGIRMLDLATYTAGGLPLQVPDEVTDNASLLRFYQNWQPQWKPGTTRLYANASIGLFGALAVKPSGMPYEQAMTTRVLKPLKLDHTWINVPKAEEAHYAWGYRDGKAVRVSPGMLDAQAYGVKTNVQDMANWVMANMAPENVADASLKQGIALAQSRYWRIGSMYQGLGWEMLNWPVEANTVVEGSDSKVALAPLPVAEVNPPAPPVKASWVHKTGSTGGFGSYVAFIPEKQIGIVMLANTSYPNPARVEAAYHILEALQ
Method: as §2

[10] = target: Pa-AmpC (Pseudomonas aeruginosa, UniProt P24735); assay: biochemical
Sequence of Pa-AmpC (P24735 27-397): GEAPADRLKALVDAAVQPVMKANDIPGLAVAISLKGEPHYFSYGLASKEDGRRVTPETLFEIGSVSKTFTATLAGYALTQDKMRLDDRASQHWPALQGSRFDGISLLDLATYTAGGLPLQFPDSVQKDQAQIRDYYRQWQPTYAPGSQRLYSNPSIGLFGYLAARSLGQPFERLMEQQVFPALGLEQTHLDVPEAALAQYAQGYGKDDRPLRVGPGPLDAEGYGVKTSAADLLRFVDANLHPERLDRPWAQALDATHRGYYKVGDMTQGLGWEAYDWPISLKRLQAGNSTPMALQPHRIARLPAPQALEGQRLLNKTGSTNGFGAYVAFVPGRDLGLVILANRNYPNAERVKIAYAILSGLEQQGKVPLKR
Method: as §2

[11] = target: NDM-1 (Klebsiella pneumoniae, UniProt C7C422); assay: Inhibition of imipenem cleavage by purified NDM-1; assay type: biochemical; details: imipenem reporter substrate; 37° C.; read-out: Ki (NDM-1, IMI)
Sequence of NDM-1 (C7C422 29-270, looked up, species assumed): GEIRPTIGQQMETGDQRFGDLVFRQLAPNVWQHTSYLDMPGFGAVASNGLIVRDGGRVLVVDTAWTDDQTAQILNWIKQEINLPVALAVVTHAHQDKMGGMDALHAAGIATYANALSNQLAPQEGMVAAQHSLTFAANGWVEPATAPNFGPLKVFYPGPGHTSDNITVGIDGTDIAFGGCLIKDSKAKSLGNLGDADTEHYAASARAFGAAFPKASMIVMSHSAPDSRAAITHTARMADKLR
Method: Purified enzymes were mixed with various concentrations of inhibitors in reaction buffer and incubated for 10 min at room temperature. Imipenem was added and substrate cleavage profiles were recorded at 294 nm every 30 seconds for 30 minutes at 37° C.

[12] = Stability of compound 13 prodrugs in human liver microsomes (HLM); assay type: in vitro ADME; details: 0.500 mg/mL human liver microsomes, no cofactors, prodrug 1.00 μM; for half-life at 1 μM: pH 7.4, read-out: Estimated half-life (minutes) (rounded to nearest integer value)
Method: In the meantime, a 20.0 mg/mL solution of human liver microsomes (XenoTech, LLC) was diluted to 1.00 mg/mL (2× final concentration). Esterase activity for each lot of microsomes used was established by assaying an unrelated ester prodrug as a control. Both the Eppendorfs for each timepoint and the diluted liver microsomes were then warmed to 37° C. in a water bath. No cofactors (e.g. NADPH) were added to ensure that only hydrolytic reactions as opposed to reactions mediated by other cofactor-dependent enzymes (e.g. CYP450 enzymes) would take place. To initiate the reaction, 50 μL of diluted human liver microsomes was added to tubes for all timepoints using a repeating-tip pipette, thereby bringing the final concentration of test compound to 1.00 μM and the final concentration of human liver microsomes to 0.500 mg/mL. At each timepoint, the reaction was halted and proteins precipitated through the addition of 200 μL of 10:45:45 water:methanol:acetonitrile v/v/v containing an unrelated ester prodrug at 250 ng/mL as an internal standard. […] Sample analysis for microsome stability experiments was conducted using a 20.0 μL injection on a LEAP PAL autosampler with Agilent 1100 binary pump HPLC coupled to an AB Sciex 3200 QTrap mass spectrometer. […] Detection was in positive mode; source parameters and parent-daughter ion selection criteria were chosen as needed for each compound to achieve an appropriate limit of detection and signal-to-noise ratio. The samples were analyzed together with appropriate blanks in order to ensure specificity. The rate of hydrolysis for each prodrug was determined by monitoring the concentration of test compound as follows. The peak area for the analyte was divided by the peak area for the internal standard to give an area ratio. The area ratio for each of the two replicates at each timepoint was divided by the area ratio for timepoint 0 to give the percent remaining at each timepoint. The natural logarithm of the percent remaining versus time for all replicates was plotted using Microsoft Excel and fitted to a linear trendline.

[13] = nitrocefin reporter substrate, 10 min preincubation at room temperature, read-out: Ki (Pa-AmpC, NCF)

Compound | PAM1032/KPC-2 Biapenem MPC64 [1] | Ki [2] [nM] | PAM1154/KPC-2 Biapenem MPC64 [3] | Ki [4] [nM] | Ki [5] [nM] | Ki [6] [nM] | Ki [7] [nM] | Ki [8] [nM] | Ki [9] [nM] | Ki [10, 13] [nM] | Ki [11] [nM] | Average % of initial area ratio at t = 0 min [12] [%] | Average % of initial area ratio at t = 5 min [12] [%] | Average % of initial area ratio at t = 10 min [12] [%] | Average % of initial area ratio at t = 30 min [12] [%] | half-life at 1 μM [12] [min] | Ki [10] [nM]
O=C(O)c1c(F)ccc2c1OB(O)C1CC21 (stereo not drawn) [Compound 4, 5-Fluoro-2-hydroxy-1a,7b-dihydro-1H-cyclopropa[c][1,2]benzoxaborinine-4-carboxylic acid] | 2.5 | 100 to 1000 | 2.5 | < 100 | < 100 | < 100 | > 1000 | < 100 | < 100 | < 100 | – | – | – | – | – | – | –
COc1ccc2c(c1C(=O)O)OB(O)C1=C2COC1 [Compound 24, 4,4-dihydroxy-7-methoxy-1,3-dihydrofuro[3,4-c][1,2]benzoxaborinine-6-carboxylic acid] | – | > 1000 | – | < 100 | < 100 | < 100 | > 1000 | < 100 | < 100 | < 100 | 100 to 1000 | – | – | – | – | – | –
COc1ccc2c(c1C(=O)O)OB(O)C=C2 [Compound 9, 2-Hydroxy-7-methoxy-1,2-benzoxaborinine-8-carboxylic acid] | >10 | > 1000 | 1.25 | – | < 100 | < 100 | > 1000 | < 100 | < 100 | 100 to 1000 | > 1000 | – | – | – | – | – | –
O=C(O)c1nccc2c1OB(O)[C@@H]1C[C@H]21 [Compound 21, (1aR,7bS)-2-hydroxy-1a,7b-dihydro-1H-cyclopropa[6,7]oxaborinino[2,3-c]pyridine-4-carboxylic acid] | 1.25 | 100 to 1000 | 1.25 | < 100 | < 100 | 100 to 1000 | – | < 100 | 100 to 1000 | > 1000 | 100 to 1000 | – | – | – | – | – | –
CC(=O)OCOC(=O)c1c(F)ccc2c1OB(O)[C@@H]1C[C@H]21 [Compound 28, Acetoxymethyl (1aR,7bS)-5-fluoro-2-hydroxy-1a,7b-dihydro-1H-cyclopropa[c][1,2]benzoxaborinine-4-carboxylate] | – | – | – | – | – | – | – | – | – | – | – | 100 | 50.8 | 23.3 | 19.6 | 15 | –
O=C(O)c1nccc2c1OB(O)[C@H]1C[C@@H]21 [Compound 20, (1aS,7bR)-2-hydroxy-1a,7b-dihydro-1H-cyclopropa[6,7]oxaborinino[2,3-c]pyridine-4-carboxylic acid] | 5 | > 1000 | 5 | < 100 | < 100 | 100 to 1000 | – | 100 to 1000 | > 1000 | > 1000 | > 1000 | – | – | – | – | – | –
COc1ccc2c(c1C(=O)O)OB(O)[C@H]1C[C@@H]21 [Compound 2, (1aS,7bR)-2-hydroxy-5-methoxy-1a,7b-dihydro-1H-cyclopropa[c][1,2]benzoxaborinine-4-carboxylic acid] | 2.5 | 100 to 1000 | 1.25 | < 100 | < 100 | < 100 | > 1000 | < 100 | < 100 | < 100 | 100 to 1000 | – | – | – | – | – | –
COc1ccc2c(c1C(=O)O)OB(O)C(F)=C2 [Compound 8, 3-Fluoro-2-hydroxy-7-methoxy-1,2-benzoxaborinine-8-carboxylic acid] | 2.5 | 100 to 1000 | 2.5 | < 100 | < 100 | < 100 | > 1000 | < 100 | < 100 | < 100 | – | – | – | – | – | – | –
CCCC(=O)OCOC(=O)c1c(F)ccc2c1OB(O)[C@@H]1C[C@H]21 [Compound 26, Butanoyloxymethyl (1aR,7bS)-5-fluoro-2-hydroxy-1a,7b-dihydro-1H-cyclopropa[c][1,2]benzoxaborinine-4-carboxylate] | – | – | – | – | – | – | – | – | – | – | – | 100 | 73.4 | 55.9 | 11.9 | 10 | –
C[C@]1(Cn2ccnn2)[C@H](C(=O)O)N2C(=O)C[C@H]2S1(=O)=O [Tazobactam, reference compound] | – | > 1000 | – | – | 100 to 1000 | > 1000 | > 1000 | 100 to 1000 | – | – | > 1000 | – | – | – | – | – | –
O=C(OCOC(=O)C1CC1)c1c(F)ccc2c1OB(O)[C@@H]1C[C@H]21 [Compound 27] | – | – | – | – | – | – | – | – | – | – | – | 100 | 91.4 | 80.4 | 25.0 | 14 | –
O=C(O)[C@H]1/C(=C/CO)O[C@@H]2CC(=O)N21 [Clavulanic Acid, reference compound] | – | > 1000 | – | < 100 | > 1000 | > 1000 | > 1000 | > 1000 | – | – | > 1000 | – | – | – | – | – | > 1000
